Test results from patent US11931327B2, “Drug for retinal degenerative disease associated with photoreceptor degeneration” (Daiichi Sankyo Company, Limited, priority 2017, dated 2024).

Assays:
[1] = test system: transgenic zebrafish Tg (rho: NTR-NanoLuc, my17: DsRed2); test: animal or person; conditions: for rod-cell regeneration induction activity compared to the DMSO control: Examples 3 and 4, TTNPB 0.3, 1, 3, 10 and 30 μM, N=4, RA and BMS493 N=8, Dunnett's test; for EC50: Danio rerio, 48 h, read-out: EC50 of rod-cell regeneration induction (Activation (% of control) 50%); for rod-cell regeneration induction activity: Example 6, various RAR agonists
Description: First, the present inventors constructed a model for evaluating induction of rod cell regeneration. […] Transgenic zebrafish Tg (rho: NTR-NanoLuc, my17: DsRed2), in which a fluorescent protein, DsRed2, which is cardiac-tissue specifically expressed by cardiomyocyte-specific my17 promoter, can be simply detected by using dsRed2 as a marker under a fluorescence stereomicroscope. In the transgenic zebrafish, in addition to cardiac tissue specific expression of DsRed2, a reductase, i.e., nitroreductase (NTR), and a photoprotein, i.e., NanoLuc fusion protein (NTR-NanoLuc), are expressed by a rod-cell specific rho promoter, in a rod-cell specific manner. […] However, if, a prodrug, metronidazole, is added, non-toxic metronidazole is converted to a toxic radical by NTR. […] After rod cells are ablated by treatment with metronidazole, the transgenic zebrafish were washed with rearing water to remove the toxic radical. […] In the transgenic zebrafish, rod cells can be quantitatively determined by measuring the amount of luminescence derived from rod-cell-specific NanoLuc expression. After the rod cells are ablated, the transgenic zebrafish are exposed to a test compound. The activity of the test compound to induce rod-cell regeneration can be quantitatively evaluated by measuring the amount of luminescence derived from NanoLuc and specific to rod cells.
1) On the day before collection of eggs, a pair of male and female zebrafish, i.e., a transgenic fish Tg (rho: NTR-NanoLuc, my17: DsRed2) and a wild type, were placed in a tank for mating and isolated by a divider.
2) The next morning (8:00-11:00), the divider was removed to allow them to mate with each other. Fertilized eggs were collected. In the evening (16:00-18:00) of the same day, only normally developed fertilized eggs were screened and raised in a plate for growth.
3) Day 3 after fertilization, juvenile fish were transferred to rearing water, which contained 10 mM metronidazole (Sigma-Aldrich, Japan) and 1% DMSO (Wako Pure Chemical Industries Ltd.), (prepared by dissolving 60 mg of instant ocean (Napco Limited (Japan)) in 1 L of distilled water), and raised in dark conditions for 24 hours. In this manner, ablation was specifically applied to the rod cells of the juvenile fish. In contrast, non-ablated juvenile fish, which were to be used as a control, were transferred to a tank containing rearing water, which contained a 1% DMSO solution, and raised.
5) Ablated juvenile fish of 4 days after fertilization were washed well with Egg water and dispensed in wells of the assay plate containing a compound together with 100 μL of Egg water, such that 2 juvenile fish individuals were present per well.
6) After the juvenile fish were raised for 2 days, […] of Egg water was removed and ethyl 3-aminobenzoate methanesulfonate (Sigma-Aldrich Japan; 0.4 mg/mL, 10 μL) was added to euthanize the fish.
7) Nano-Glo (registered trademark) Luciferase assay Substrate (Promega Corporation) was added to Nano-Glo (registered trademark) Luciferase assay buffer (Promega Corporation) in a ratio of 1:50 and 100 μL of the resultant solution was added to each of the wells.
8) Shaking was carried out by use of BIO-Mixer (Biotech Japan Co., Ltd.) for one hour and luminescence of NanoLuc (registered trademark) was measured by use of EnVision (PerkinElmer Co., Ltd., Japan).
Individual concentration groups were compared to the DMSO control group by the Dunnett's test.

Human RARβ = biological target: T1, Human RARβ (Homo sapiens, UniProt P10826); test: RAR agonistic activity, luciferase reporter (3xDR5: luc) in HEK293A cells; conditions: concentration exhibiting luminescence of 1000% of Negative control; 24 hours exposure; N=4
T1 sequence (P10826 1-448 isoform P10826-2): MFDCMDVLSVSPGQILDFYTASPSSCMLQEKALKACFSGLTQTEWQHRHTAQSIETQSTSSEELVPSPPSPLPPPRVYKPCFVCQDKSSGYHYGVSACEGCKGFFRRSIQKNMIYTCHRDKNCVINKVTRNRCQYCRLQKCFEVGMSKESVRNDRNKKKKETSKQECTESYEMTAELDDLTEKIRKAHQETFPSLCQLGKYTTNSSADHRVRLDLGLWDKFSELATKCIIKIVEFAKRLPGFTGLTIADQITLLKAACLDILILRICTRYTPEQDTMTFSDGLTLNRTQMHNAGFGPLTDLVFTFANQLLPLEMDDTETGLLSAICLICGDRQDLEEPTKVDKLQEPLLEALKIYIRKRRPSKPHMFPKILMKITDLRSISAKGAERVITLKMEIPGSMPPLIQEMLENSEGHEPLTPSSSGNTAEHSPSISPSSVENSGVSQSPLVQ
Procedure: (§1) RAR agonistic activity was measured in the following procedure.
(§2) 1) HEK293A cells (Invitrogen), which functionally co-express Human RARα, Human RARβ and Human RARγ, were prepared by adding Lipofectamine (registered trademark) 2000 Transfection Reagent (Thermo Fisher Scientific) to an RAR synthetic response element luciferase reporter construct (3xDR5: luc) in accordance with the method described in the manual attached to the kit.
(§3) 3) Twenty-four hours after exposure to a compound, luminescence from the cells was measured by using PICCA JEAN (registered trademark) luminescence kit (TOYO B-Net CO., LTD.) and EnVision (PerkinElmer Corporation, Japan) (N=4).
(§4) In evaluation of RAR agonistic activity, provided that the measurement value (Negative control) of luminescence from the cells with no addition of a compound was determined as 100%, the RAR agonistic activity (%) of a test substance was calculated in accordance with the following expression. The average value thereof was plotted versus the concentration of a test substance. RAR agonistic activity (%)=(measurement value of sample well÷average value of Negative control)×100

Human RARγ = biological target: T2, Human RARγ (Homo sapiens, UniProt P13631); test: as above; conditions: concentration exhibiting luminescence of 500% of Negative control; 24 hours exposure; N=4
T2 sequence (P13631 1-454): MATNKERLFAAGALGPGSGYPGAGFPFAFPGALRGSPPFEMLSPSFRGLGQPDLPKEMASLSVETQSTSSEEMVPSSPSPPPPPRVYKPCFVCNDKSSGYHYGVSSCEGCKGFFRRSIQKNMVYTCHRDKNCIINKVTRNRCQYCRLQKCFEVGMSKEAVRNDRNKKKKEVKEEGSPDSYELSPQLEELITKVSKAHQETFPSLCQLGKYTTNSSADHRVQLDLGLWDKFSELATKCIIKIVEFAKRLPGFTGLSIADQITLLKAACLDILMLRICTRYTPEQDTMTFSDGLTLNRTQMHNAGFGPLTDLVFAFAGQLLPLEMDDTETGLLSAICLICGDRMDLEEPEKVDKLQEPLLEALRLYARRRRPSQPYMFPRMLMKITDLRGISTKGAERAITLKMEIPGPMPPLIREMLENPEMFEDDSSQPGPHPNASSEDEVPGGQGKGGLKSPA
Procedure: as §1, §2, §3, §4

Human RARα = biological target: T3, Human RARα (Homo sapiens, UniProt P10276); test: as above; conditions: concentration exhibiting luminescence of 1000% of Negative control; 24 hours exposure; N=4
T3 sequence (P10276 1-462): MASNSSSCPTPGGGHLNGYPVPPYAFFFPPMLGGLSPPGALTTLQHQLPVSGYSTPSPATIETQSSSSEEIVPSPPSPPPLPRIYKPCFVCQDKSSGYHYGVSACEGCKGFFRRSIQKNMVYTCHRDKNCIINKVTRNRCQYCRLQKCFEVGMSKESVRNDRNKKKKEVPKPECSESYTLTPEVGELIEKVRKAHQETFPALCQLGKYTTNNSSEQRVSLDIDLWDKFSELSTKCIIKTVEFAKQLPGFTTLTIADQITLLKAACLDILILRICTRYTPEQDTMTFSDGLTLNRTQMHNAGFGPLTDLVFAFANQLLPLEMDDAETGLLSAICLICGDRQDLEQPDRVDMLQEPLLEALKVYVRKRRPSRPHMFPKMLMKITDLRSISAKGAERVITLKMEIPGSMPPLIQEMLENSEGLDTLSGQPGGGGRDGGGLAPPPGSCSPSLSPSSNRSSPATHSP
Procedure: as §1, §2, §3, §4

[2] = test system: pathological zebrafish 2: Tg (rho: NTR-NanoLuc, my17: DsRed2) crossed with Tg (rho: hRHO (Q344X), omp: EGFP); test: Rod-cell regeneration effect in retinitis pigmentosa model, quantitative evaluation by NanoLuc luminescence; format: in vivo; conditions: N=8 per concentration; Dunnett's test; FIG. 7
Procedure: Pathological model zebrafish, in which rod-cell regeneration can be quantitatively evaluated, were newly prepared using zebrafish known as a retinitis pigmentosa model. The effect of compounds was quantitatively verified in accordance with the following procedure.
1) Quantitative evaluation of rod-cell regeneration was carried out by zebrafish (pathological zebrafish 2) obtained by crossing transgenic Tg (rho: NTR-NanoLuc, my17: DsRed2) and Tg (rho: hRHO (Q344X), omp: EGFP).
Fertilized eggs were collected.
A screening test was repeated 8 times (N=8) at each concentration.
2) After shaking for one hour using BIO-Mixer, the luminescence from NanoLuc (registered trademark) was measured by use of EnVision.

[3] = test system: transgenic zebrafish Tg (rho: NTR-NanoLuc, my17: DsRed2); test: Validation: ablation of rod cells by metronidazole, luminescence derived from rod cells; format: in vivo; conditions: 10 mM for 24 hours, day 3 after fertilization
Procedure: Thereafter, rod-cells are gradually regenerated in the zebrafish.
Day 3 after fertilization, the transgenic zebrafish were treated with 10 mM metronidazole (Sigma-Aldrich Japan) for 24 hours and euthanized by adding ethyl 3-aminobenzoate methanesulfonate (Sigma-Aldrich Japan). Luminescence derived from rod cells was measured in accordance with the manual attached to Nano-Glo (registered trademark) Luciferase Assay System (Promega Corporation). […] The resultant transgenic ablated fish were washed with rearing water, and a toxic radical derived from metronidazole was removed. Luminescence derived from the rod cells after 24 and 48 hours was measured. As a result, it was confirmed that rod cells are gradually regenerated over 48 hours (FIG. 3).

| Compound | RARβ EC1000 (Human RARβ) | RARγ EC500 (Human RARγ) | EC50 [1] | RARα EC1000 (Human RARα) | also measured |
| --- | --- | --- | --- | --- | --- |
| 4-[(1E)-2-[5,6-dihydro-5,5-dimethyl-8-(2-phenylethynyl)-2naphthalenyl]ethenyl]benzoate [BMS493] | – | – | – | – | precipitation of compound in the assay ([1]; 30 μM): precipitated; toxicity to fish ([1]; 100 μM, cardiac arrest): all fish died; rod-cell regeneration induction activity compared to the DMSO control [1]: did not show rod-cell regeneration induction activity |
| COc1ccc(-c2ccc3cc(C(=O)O)ccc3c2)cc1C12CC3CC(CC(C3)C1)C2 [Adapalene] | 6.9 nM | 54 nM | > 1000 nM | 12 nM | Activation (% of control) ([1]; at 1000 nM (the maximum concentration evaluated), DMSO = 0%, 1 μM TTNPB = 100%): 39% |
| CC1=C(/C=C/C(C)=C/C=C/C(C)=C/C(=O)O)C(C)(C)CCC1 [All-trans Retinoic acid] | – | – | – | – | rod-cell regeneration induction activity compared to the DMSO control [1]: significant rod-cell regeneration induction activity in a concentration-dependent manner |
| CC1(C)CCC(C)(C)c2cc(Cn3cccn3)c(/C=C/c3ccc(C(=O)O)cc3)cc21 [Palovarotene] | – | – | 1210 nM | – | – |
| CCOC(=O)c1ccc(C(=O)Nc2ccc3c(c2)C(C)(C)CCC3(C)C)cc1 [Tamibarotene ethyl ester] | 514 nM | 714 nM | 4.9 nM | 21.8 nM | rod-cell regeneration induction activity [1]: strong rod-cell regeneration induction activity |
| COC(=O)c1ccc(C(=O)Nc2ccc3c(c2)C(C)(C)CCC3(C)C)cc1 [Tamibarotene methyl ester] | 29.1 nM | 72.8 nM | 85.4 nM | 0.91 nM | – |
| CC1(C)CCC(C)(C)c2cc(NC(=O)c3ccc(C(=O)O)cc3)ccc21 [Tamibarotene] | 79 nM | 248 nM | 9.08 nM | – | rod-cell regeneration induction activity [1]: strong rod-cell regeneration induction activity; regeneration of rod cells in the retinitis pigmentosa model (luminescence, words) [2]: statistically significant regeneration of rod cells in a dose dependent manner |
| CCOC(=O)c1ccc(C#Cc2ccc3c(c2)C(C)(C)CCS3)nc1 [Tazarotene] | – | – | 402 nM | – | – |
| CC1(C)CCSc2ccc(C#Cc3ccc(C(=O)O)cn3)cc21 [Tazarotenic acid] | 4.4 nM | 48 nM | 786 nM | 12 nM | – |
| Cc1ncc([N+](=O)[O-])n1CCO [metronidazole] | – | – | – | – | number of rod cells remaining after ablation (luminescence) [3]: 13.5% |
